Experimental data taken from patent US11498899B2, “Nitrone herbicides” (FMC Corporation, priority 2016, dated 2022).

Legend:
[1] = tested on: rice (Oryza sativa); assay: Test B flooded paddy test, visual rating 0-100 (0 no effect, 100 complete control); settings: Flood, 250 g ai/ha, applied to paddy water, rated after 13 to 15 days
[2] = tested on: galium (catchweed bedstraw, Galium aparine); assay: Test A postemergence, visual injury rating 0-100; format: in vivo; settings: 0 to 100 scale
Excerpt: (§1) Seeds of plant species selected from barnyardgrass (Echinochloa crus-galli), kochia (Kochia scoparia), ragweed (common ragweed, Ambrosia elatior), ryegrass, Italian (Italian ryegrass, Lolium multiflorum), foxtail, giant (giant foxtail, Setaria faberii), foxtail, green (green foxtail, Setaria viridis), and pigweed (Amaranthus retroflexus) were planted into a blend of loam soil and sand and treated preemergence with a directed soil spray using test chemicals formulated in a non-phytotoxic solvent mixture which included a surfactant.
(§2) At the same time, plants selected from these weed species and also wheat (Triticum aestivum), corn (Zea mays), blackgrass (Alopecurus myosuroides), and galium (catchweed bedstraw, Galium aparine) were planted in pots containing the same blend of loam soil and sand and treated with postemergence applications of test chemicals formulated in the same manner. Plants ranged in height from 2 to 10 cm and were in the one- to two-leaf stage for the postemergence treatment. Treated plants and untreated controls were maintained in a greenhouse for approximately 10 days, after which time all treated plants were compared to untreated controls and visually evaluated for injury. […] A dash (-) response means no test result.

[3] = tested on: corn (Zea mays); assay: Test A postemergence, visual injury rating 0-100; format: in vivo; settings: 0 to 100 scale
Excerpt: as §1, §2

[4] = tested on: kochia (Kochia scoparia); assay: Test A postemergence, visual injury rating 0-100; format: in vivo; settings: 0 to 100 scale
Excerpt: as §1, §2

[5] = tested on: foxtail, giant (giant foxtail, Setaria faberii); assay: Test A postemergence, visual injury rating 0-100; format: in vivo; settings: 0 to 100 scale
Excerpt: as §1, §2

[6] = tested on: ryegrass, Italian (Italian ryegrass, Lolium multiflorum); assay: Test A postemergence, visual injury rating 0-100; format: in vivo; settings: 0 to 100 scale
Excerpt: as §1, §2

[7] = tested on: pigweed (Amaranthus retroflexus); assay: Test A postemergence, visual injury rating 0-100; format: in vivo; settings: 0 to 100 scale
Excerpt: as §1, §2

[8] = tested on: blackgrass (Alopecurus myosuroides); assay: Test A postemergence, visual injury rating 0-100; format: in vivo; settings: 0 to 100 scale
Excerpt: as §1, §2

[9] = tested on: barnyardgrass (Echinochloa crus-galli); assay: Test A postemergence, visual injury rating 0-100; format: in vivo; settings: 0 to 100 scale
Excerpt: as §1, §2

[10] = tested on: ragweed (common ragweed, Ambrosia elatior); assay: Test A postemergence, visual injury rating 0-100; format: in vivo; settings: 0 to 100 scale
Excerpt: as §1, §2

[11] = tested on: wheat (Triticum aestivum); assay: Test A postemergence, visual injury rating 0-100; format: in vivo; settings: 0 to 100 scale
Excerpt: as §1, §2

[12] = tested on: kochia (Kochia scoparia); assay: Test A preemergence, visual injury rating 0-100; format: in vivo
[13] = tested on: foxtail, giant (giant foxtail, Setaria faberii); assay: Test A preemergence, visual injury rating 0-100; format: in vivo
[14] = tested on: ryegrass, Italian (Italian ryegrass, Lolium multiflorum); assay: Test A preemergence, visual injury rating 0-100; format: in vivo
[15] = tested on: pigweed (Amaranthus retroflexus); assay: Test A preemergence, visual injury rating 0-100; format: in vivo
[16] = tested on: ragweed (common ragweed, Ambrosia elatior); assay: Test A preemergence, visual injury rating 0-100; format: in vivo
[17] = tested on: barnyardgrass (Echinochloa crus-galli); assay: Test A preemergence, visual injury rating 0-100 (0 no effect, 100 complete control); format: in vivo
[18] = tested on: ducksalad (Heteranthera limosa); assay: Test B flooded paddy test, visual rating 0-100; settings: Flood, 250 g ai/ha, applied to paddy water, rated after 13 to 15 days
[19] = tested on: barnyardgrass (Echinochloa crus-galli); assay: Test B flooded paddy test, visual rating 0-100; settings: Flood, 250 g ai/ha, applied to paddy water, rated after 13 to 15 days

| Structure (SMILES) | Rice plant response rating (0 to 100 scale) [1] | Galium plant response rating ([2]; 125 g ai/ha) | Galium plant response rating ([2]; 500 g ai/ha) | Corn plant response rating ([3]; 125 g ai/ha) | Corn plant response rating ([3]; 500 g ai/ha) | Kochia plant response rating ([4]; 125 g ai/ha) | Kochia plant response rating ([4]; 500 g ai/ha) | Foxtail, Giant plant response rating ([5]; 125 g ai/ha) | Foxtail, Giant plant response rating ([5]; 500 g ai/ha) | Ryegrass, Italian plant response rating ([6]; 125 g ai/ha) | Ryegrass, Italian plant response rating ([6]; 500 g ai/ha) | Pigweed plant response rating ([7]; 125 g ai/ha) | Pigweed plant response rating ([7]; 500 g ai/ha) | Blackgrass plant response rating ([8]; 125 g ai/ha) | Blackgrass plant response rating ([8]; 500 g ai/ha) | Barnyardgrass plant response rating ([9]; 125 g ai/ha) | Barnyardgrass plant response rating ([9]; 500 g ai/ha) | Ragweed plant response rating ([10]; 125 g ai/ha) | Ragweed plant response rating ([10]; 500 g ai/ha) | Wheat plant response rating ([11]; 125 g ai/ha) | other results |
| --- | --- | --- | --- | --- | --- | --- | --- | --- | --- | --- | --- | --- | --- | --- | --- | --- | --- | --- | --- | --- | --- |
| CC1=[N+]([O-])C(C(=O)Nc2cccc(F)c2F)C(c2cccc(Oc3ccc(Cl)cn3)c2)C1 (racemic) [Compound 56] | 0 | 30 | 50 | 0 | 40 | 10 | 20 | 40 | 40 | 50 | 80 | 0 | 30 | 70 | 80 | 20 | 60 | 0 | 20 | 20 | Wheat plant response rating ([11]; 500 g ai/ha): 40; Kochia plant response rating (0 to 100 scale) ([12]; 125 g ai/ha): 0; Kochia plant response rating (0 to 100 scale) ([12]; 500 g ai/ha): 0; Foxtail, Giant plant response rating (0 to 100 scale) ([13]; 125 g ai/ha): 60; Foxtail, Giant plant response rating (0 to 100 scale) ([13]; 500 g ai/ha): 90; Ryegrass, Italian plant response rating (0 to 100 scale) ([14]; 125 g ai/ha): 60; Ryegrass, Italian plant response rating (0 to 100 scale) ([14]; 500 g ai/ha): 70; Pigweed plant response rating (0 to 100 scale) ([15]; 125 g ai/ha): 0; Pigweed plant response rating (0 to 100 scale) ([15]; 500 g ai/ha): 0; Ragweed plant response rating (0 to 100 scale) ([16]; 125 g ai/ha): 0; Ragweed plant response rating (0 to 100 scale) ([16]; 500 g ai/ha): 0; Barnyardgrass plant response rating (0 to 100 scale) ([17]; 125 g ai/ha): 10; Barnyardgrass plant response rating (0 to 100 scale) ([17]; 500 g ai/ha): 90; Ducksalad plant response rating (0 to 100 scale) [18]: 40; Barnyardgrass plant response rating (0 to 100 scale) [19]: 25 |
| COc1cc(C2CC(C)=[N+]([O-])C2C(=O)Nc2cccc(F)c2F)cc(C)n1 (racemic) [Compound 57] | 0 | 30 | 40 | 60 | 90 | 0 | 30 | 40 | 90 | 40 | 90 | 0 | 0 | 80 | 90 | 80 | 80 | 0 | 0 | 20 | Wheat plant response rating ([11]; 500 g ai/ha): 90; Kochia plant response rating (0 to 100 scale) ([12]; 125 g ai/ha): 60; Kochia plant response rating (0 to 100 scale) ([12]; 500 g ai/ha): 60; Foxtail, Giant plant response rating (0 to 100 scale) ([13]; 125 g ai/ha): 90; Foxtail, Giant plant response rating (0 to 100 scale) ([13]; 500 g ai/ha): 100; Ryegrass, Italian plant response rating (0 to 100 scale) ([14]; 125 g ai/ha): 20; Ryegrass, Italian plant response rating (0 to 100 scale) ([14]; 500 g ai/ha): 90; Pigweed plant response rating (0 to 100 scale) ([15]; 125 g ai/ha): 0; Pigweed plant response rating (0 to 100 scale) ([15]; 500 g ai/ha): 20; Ragweed plant response rating (0 to 100 scale) ([16]; 125 g ai/ha): 0; Ragweed plant response rating (0 to 100 scale) ([16]; 500 g ai/ha): 30; Barnyardgrass plant response rating (0 to 100 scale) ([17]; 125 g ai/ha): 90; Barnyardgrass plant response rating (0 to 100 scale) ([17]; 500 g ai/ha): 100; Ducksalad plant response rating (0 to 100 scale) [18]: 0; Barnyardgrass plant response rating (0 to 100 scale) [19]: 55 |
| CC1=[N+]([O-])C(C(=O)Nc2cccc(F)c2F)C(c2cccc(Oc3ccc(F)cc3)c2)C1 (racemic) [Compound 58] | 0 | 30 | 50 | 0 | 40 | 0 | 20 | 30 | 70 | 20 | 50 | 0 | 30 | 20 | 70 | 10 | 30 | 0 | 0 | 10 | Wheat plant response rating ([11]; 500 g ai/ha): 20; Kochia plant response rating (0 to 100 scale) ([12]; 125 g ai/ha): 0; Kochia plant response rating (0 to 100 scale) ([12]; 500 g ai/ha): 0; Foxtail, Giant plant response rating (0 to 100 scale) ([13]; 125 g ai/ha): 40; Foxtail, Giant plant response rating (0 to 100 scale) ([13]; 500 g ai/ha): 90; Ryegrass, Italian plant response rating (0 to 100 scale) ([14]; 125 g ai/ha): 10; Ryegrass, Italian plant response rating (0 to 100 scale) ([14]; 500 g ai/ha): 80; Pigweed plant response rating (0 to 100 scale) ([15]; 125 g ai/ha): 0; Pigweed plant response rating (0 to 100 scale) ([15]; 500 g ai/ha): 0; Ragweed plant response rating (0 to 100 scale) ([16]; 125 g ai/ha): 0; Ragweed plant response rating (0 to 100 scale) ([16]; 500 g ai/ha): 90; Barnyardgrass plant response rating (0 to 100 scale) ([17]; 125 g ai/ha): 10; Barnyardgrass plant response rating (0 to 100 scale) ([17]; 500 g ai/ha): 90; Ducksalad plant response rating (0 to 100 scale) [18]: 0; Barnyardgrass plant response rating (0 to 100 scale) [19]: 0 |
| CC1=[N+]([O-])C(C(=O)Nc2cccc(F)c2F)C(c2ccc(C(F)(F)F)nc2)C1 (racemic) [Compound 60] | 0 | 20 | 60 | 20 | 60 | 0 | 10 | 70 | 90 | 0 | 40 | 0 | 10 | 10 | 70 | 40 | 90 | 0 | 40 | 20 | Wheat plant response rating ([11]; 500 g ai/ha): 70; Kochia plant response rating (0 to 100 scale) ([12]; 125 g ai/ha): 10; Kochia plant response rating (0 to 100 scale) ([12]; 500 g ai/ha): 80; Foxtail, Giant plant response rating (0 to 100 scale) ([13]; 125 g ai/ha): 90; Foxtail, Giant plant response rating (0 to 100 scale) ([13]; 500 g ai/ha): 100; Ryegrass, Italian plant response rating (0 to 100 scale) ([14]; 125 g ai/ha): 10; Ryegrass, Italian plant response rating (0 to 100 scale) ([14]; 500 g ai/ha): 70; Pigweed plant response rating (0 to 100 scale) ([15]; 125 g ai/ha): 50; Pigweed plant response rating (0 to 100 scale) ([15]; 500 g ai/ha): 80; Ragweed plant response rating (0 to 100 scale) ([16]; 125 g ai/ha): 0; Ragweed plant response rating (0 to 100 scale) ([16]; 500 g ai/ha): 90; Barnyardgrass plant response rating (0 to 100 scale) ([17]; 125 g ai/ha): 90; Barnyardgrass plant response rating (0 to 100 scale) ([17]; 500 g ai/ha): 100; Ducksalad plant response rating (0 to 100 scale) [18]: 0; Barnyardgrass plant response rating (0 to 100 scale) [19]: 40 |
| CC1=[N+]([O-])C(C(=O)Nc2cccc(F)c2F)C(c2ccc(C)c(C(F)(F)F)c2)C1 (racemic) [Compound 62] | 0 | 40 | 50 | 60 | 80 | 0 | 20 | 50 | 80 | 70 | 80 | 0 | 10 | 40 | 70 | 70 | 80 | 0 | 50 | 40 | Wheat plant response rating ([11]; 500 g ai/ha): 50; Kochia plant response rating (0 to 100 scale) ([12]; 125 g ai/ha): 0; Kochia plant response rating (0 to 100 scale) ([12]; 500 g ai/ha): 60; Foxtail, Giant plant response rating (0 to 100 scale) ([13]; 125 g ai/ha): 90; Foxtail, Giant plant response rating (0 to 100 scale) ([13]; 500 g ai/ha): 90; Ryegrass, Italian plant response rating (0 to 100 scale) ([14]; 125 g ai/ha): 90; Ryegrass, Italian plant response rating (0 to 100 scale) ([14]; 500 g ai/ha): 90; Pigweed plant response rating (0 to 100 scale) ([15]; 125 g ai/ha): 10; Pigweed plant response rating (0 to 100 scale) ([15]; 500 g ai/ha): 70; Ragweed plant response rating (0 to 100 scale) ([16]; 125 g ai/ha): 0; Ragweed plant response rating (0 to 100 scale) ([16]; 500 g ai/ha): 60; Barnyardgrass plant response rating (0 to 100 scale) ([17]; 125 g ai/ha): 90; Barnyardgrass plant response rating (0 to 100 scale) ([17]; 500 g ai/ha): 90; Ducksalad plant response rating (0 to 100 scale) [18]: 0; Barnyardgrass plant response rating (0 to 100 scale) [19]: 55 |
